In US12544347B2, “Anti-cancer combination and a method of therapy using the combination” (NATIONAL CENTRE FOR CELL SCIENCE, priority 2018, dated 2026):
Counter-ions that a name gives are not always drawn.

Columns and labels:
Format in all cases: cell-based
LN-18 cells = assay: MTT assay, cell viability in LN-18 cells (monolayer or multicellular spheroids); settings: 24 hr
Protocol: (§1) FIG. 1 depicts cell viability assessed by MTT assay in GBM cell lines-LN-18 and LN-229 using tamoxifen (TAM) at concentration of 5 μg/ml, 10 μg/ml and 15 μg/ml; individually and in combination with Valproic Acid (VPA) (2 mM) wherein the cells were cultured as monolayer (ML) or Multicellular Spheroids (MCS). Unt-open bar-represents untreated cells and hatched bar—[…] (2 mM). Further, the open bars (in 5, 10 15) depict TAM alone and the hatched bars depict TAM in combination with VPA. FIG. 1 also depicts the P values (represented as *) significant for differences between TAM alone versus TAM+VPA. The images are LN-18 cells grown as 2D cultures—ML and 3D-MCS.
FIG. 3 depicts the effect of Valpromide (VPM), an analogue of VPA causing sensitization of tamoxifen (TAM) which induced cell death in LN-18 cells cultured as monolayer (ML). […] The P values (represented as *) are significant for differences between TAM alone versus TAM+VPA/VPM.
MTT assay was employed for assessing the combined action of tamoxifen (TAM) and VPA. LN-18 cells and LN-229 were seeded in 96 well plate (5000 cells/100 ul/well) in complete medium and cultured for 24 hr in two culture models-monolayer and 3D culture. Cells were treated with tamoxifen (TAM) at 3 concentrations-5 μg/ml, 10 μg/ml and 15 μg/ml either individually or in combination with Valproic Acid (VPA) (2 mM) for 24 hr. MTT was added and after 4 hr the crystals were solubilized using DMSO. Absorbance was recorded at 490 nm (test filter) and 570 nm (reference filter). The % cell viability in treated cells was calculated considering the readings in untreated cells as 100%. The results are presented at FIG. 1. […] From FIG. 1, it is evident that the combination of the present invention is synergistic.
LN-18 cells (ML) were seeded in 96 well plate (5000 cells/100 ul/well) in complete medium and cultured for 24 hr. […] Absorbance was recorded at 490 nm (test filter) and 570 nm (reference filter). The % cell viability with treatment was calculated with readings in untreated cells considered as 100%. […]

LN-229 cells = assay: MTT assay, cell viability in LN-229 cells (monolayer or multicellular spheroids); settings: LN-229 MCS; TAM alone; 24 hr
Protocol: as §1
MTT assay was employed for assessing the combined action of tamoxifen (TAM) and VPA. LN-18 cells and LN-229 were seeded in 96 well plate (5000 cells/100 ul/well) in complete medium and cultured for 24 hr in two culture models-monolayer and 3D culture. Cells were treated with tamoxifen (TAM) at 3 concentrations-5 μg/ml, 10 μg/ml and 15 μg/ml either individually or in combination with Valproic Acid (VPA) (2 mM) for 24 hr. MTT was added and after 4 hr the crystals were solubilized using DMSO. Absorbance was recorded at 490 nm (test filter) and 570 nm (reference filter). The % cell viability in treated cells was calculated considering the readings in untreated cells as 100%. The results are presented at FIG. 1. […]

[1] = tested on: prostate apoptosis response (Par)-4; assay: Western blotting of intracellular and secretory Par-4 in LN-18 cells; settings: TAM 10 μg/ml, VPA 2 mM, alone or combined, 48 hr
Protocol: FIG. 4 depicts the effect of combination of tamoxifen (10 μg/ml) and valproic acid (2 mM) on the levels of secretory Par-4 and expression of GRP78 in […] cells wherein the control (C) represents untreated cells, V represents for valproic acid, T represents for tamoxifen and V+T represents combination of tamoxifen and valproic acid. The LN-18 cells were treated with tamoxifen or valproic acid alone or in combination for 48 hrs.
LN-18 cells were seeded in 6 well plate (0.3 million cells/well) and treated with TAM (10 μg/ml) and VPA (2 mM) either individually or in combination for 48 hr. Cell lysates were assessed for expression of intracellular prostate apoptosis response (Par)-4 and secretory Par-4 was measured in supernatants. Western blotting was done using 10% gels and the proteins were identified using specific antibodies followed by probing with luminol-based Enhanced Chemiluminescent (ECL) western blotting substrate. The results are presented at FIG. 4.

[2] = tested on: prostate apoptosis response (Par)-4; assay: Western blotting of intracellular Par-4 in LN-229 cells; settings: LN-229 cell lysates; TAM 12 μg/ml, VPA 2 mM, alone or combined; 24 hr
Protocol: FIG. 5 depicts the effect of tamoxifen (12 μg/ml) or valproic acid (2 mM) alone or combination of tamoxifen and valproic acid on Par-4 expression in LN-229 cells for 24 hr. GAPDH was used as loading control and control group (C) represents untreated cells. LN-229 cells were seeded in 6 well plate (0.3 million cells/well) and treated with TAM (12 μg/ml) and VPA (2 mM) either individually or in combination for 24 hr. Cell lysates were assessed for expression of intracellular prostate apoptosis response (Par)-4. Western blotting was done using 10% gels and the proteins were identified using specific antibodies followed by probing with luminol-based Enhanced Chemiluminescent (ECL) western blotting substrate.

Row | SMILES | effect on % cell viability (MTT) (LN-18 cells; LN-18 MCS, TAM alone) | effect on % cell viability (MTT) (LN-18 cells; LN-18 cells, TAM 15 ug/ml alone) | effect on % cell viability (MTT) (LN-18 cells; monolayer, TAM 5, 10 and 15 μg/ml alone) | effect on % cell viability (MTT) (LN-229 cells) | cellular Par-4 level (western blot) ([1]; LN-18 cell lysates) | secretory Par-4 level (western blot) ([1]; LN-18 supernatants) | cellular Par-4 expression (western blot) [2]
1 | CC/C(=C(\c1ccccc1)c1ccc(OCCN(C)C)cc1)c1ccccc1 [TAM, (Z)-2[p[(1,2-diphenyl-1-butenyl)phenoxyl]-N,N-dimethylamine citrate] | resistant | toxic | dose dependent | resistant | enhanced | enhanced | 
2 | CCCC(CCC)C(=O)O [VPA, Valproic acid] |  |  |  |  |  |  | induced
